Assay results published in patent publication US10428018B2, “ROR gamma (RORy) modulators” (LEAD PHARMA HOLDING B.V., priority 2015, dated 2019).

These compounds were tested against T1, RORγ (Homo sapiens, UniProt P51449) (assay: RORγ GAL4 reporter gene assay (luciferase readout, 293FT cells)). Settings: inhibition of RORγ (GAL4-RORγ-LBD) luciferase signal in transfected 293FT cells, overnight incubation; read-out: mean pIC50 (converted).
T1 construct: expressed in transfected cells; host or cells: 293FT cells (Invitrogen), expression vector pFN26A (Promega)
T1 sequence (P51449 269-508 limits assumed): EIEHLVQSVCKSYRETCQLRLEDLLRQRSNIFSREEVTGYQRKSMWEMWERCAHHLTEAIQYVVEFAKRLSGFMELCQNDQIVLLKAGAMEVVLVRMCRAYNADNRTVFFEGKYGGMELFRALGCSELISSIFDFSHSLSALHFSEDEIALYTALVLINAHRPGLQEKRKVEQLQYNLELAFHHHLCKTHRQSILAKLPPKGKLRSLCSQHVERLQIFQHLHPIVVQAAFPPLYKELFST
Type: cell-based
Method: Example inhibitors 1-45 were tested for their ability to inhibit RORγ activity in a RORγ GAL4 reporter gene assay.
The RORγ ligand-binding domain (LBD) was fused to the yeast GAL4 DNA binding domain (DBD) and placed under the control of the human cytomegalovirus (CMV) immediate early promoter, using expression vector pFN26A (Promega) and standard recombinant DNA cloning methods.
To monitor the inhibitory effect of compounds on RORγ, a transcriptional reporter construct was used. The pGL4.35 vector (Promega) contains nine copies of the GAL4 Upstream Activator Sequence (UAS). This sequence drives the transcription of the luciferase reporter gene luc2P in response to binding of a fusion protein containing the GAL4 DNA binding domain, as for example expressed by the GAL4-RORγ-LBD and GAL4-VP16 expression vectors described above.
The day after transfection, cells were plated into 96 well plates, test compound was added and the plates were incubated overnight. Subsequently, the firefly luciferase activity was quantified using luciferase detection reagent and luminescence readout.
1500 μL of this reagent mixture was added to 5 μg of GAL4 fusion protein expression vector and 5 μg of the transcriptional reporter construct, and incubated at RT for 20 minutes.
Subsequently, the cells were washed with Phosphate Buffered Saline (PBS) (Lonza), after which the PBS was removed. To dissociate the cells, 1 ml of TrypLE Express (Invitrogen) was added to the flask, followed by incubation at RT until the cells visually started to detach. Cells were collected in 5 mL of assay medium (DMEM culture medium (Lonza), 10% dialyzed FBS (Invitrogen) and Pen/Strep (Lonza)) to achieve a single cell suspension. 10×10^6 cells were spun down and re-suspended in 10 mL of assay medium.
For compound screening, the cells were harvested (as described above) and counted. […] 80 μL of cell suspension (60,000 cells) was plated per well into a white, flat bottom, tissue culture treated, 96 well screening plates (Greiner).
Subsequently, these solutions were diluted to 5× the final test concentration in two 10-fold-dilution steps in assay medium. The final DMSO concentration of the 5× test compound solution was 1%. 20 μL of the 5× test compound solution was added to each test well of the 96 well plate previously plated with 80 μl cell suspension, resulting in the final test concentration with 0.2% DMSO.
For the luciferase readout, the luciferase reagent (Britelite Plus, Perkin Elmer) was brought to RT. To each test well of the screening plates, 100 μL of 2.5-fold diluted Britelite Plus reagent was added, followed by incubation at RT for 10 minutes. The luciferase luminescence signal was measured using a Wallac Victor Microplate Reader (Perkin Elmer).

IC50 [nM]	Structure (SMILES)
≤ 1000	CCS(=O)(=O)c1ccc(CC(=O)Nc2ccc(C(=O)N(c3ccccn3)C3CC3)cc2)cc1 [Example 40, N-cyclopropyl-4-{2-[4-(ethanesulfonyl)phenyl]acetamido}-N-(pyridin-2-yl)benzamide]
≤ 1000	CCN(C(=O)c1ccc(NC(=O)Cc2ccc(S(=O)(=O)CC)cc2)nc1)c1ccccc1 [Example 24, 6-{2-[4-(ethanesulfonyl)phenyl]acetamido}-N-ethyl-N-phenylpyridine-3-carboxamide]
≤ 100	CCS(=O)(=O)c1ccc(CC(=O)Nc2ccc(C(=O)N(C)c3ccccc3)cc2)cc1 [Example 30, 4-{2-[4-(ethanesulfonyl)phenyl]acetamido}-N-methyl-N-phenylbenzamide]
≤ 1000	CCS(=O)(=O)c1ccc(CC(=O)Nc2ccc(C(=O)N3CCCC3c3ccccc3)cc2)cc1 (centres unmarked) [Example 29, 2-[4-(ethanesulfonyl)phenyl]-N-[4-(2-phenylpyrrolidine-1-carbonyl)phenyl]acetamide]
≤ 100	CCCN(Cc1ccccc1)C(=O)c1ccc(NC(=O)Cc2ccc(S(=O)(=O)CC)cc2)cc1 [Example 25, N-benzyl-4-{2-[4-(ethanesulfonyl)phenyl]acetamido}-N-propylbenzamide]
≤ 1000	CCS(=O)(=O)c1ccc(CC(=O)Nc2ccc(C(=O)N(C3CCC3)C3CCC3)cc2)cc1 [Example 35, N, N-dicyclobutyl-4-{2-[4-(ethanesulfonyl)phenyl]acetamido}benzamide]
≤ 1000	CCS(=O)(=O)c1ccc(CC(=O)Nc2ccc(C(=O)N(C)c3ccccn3)cc2)cc1 [Example 23, 4-{2-[4-(ethanesulfonyl)phenyl]acetamido}-N-methyl-N-(pyridin-2-yl)benzamide]
≤ 1000	CCS(=O)(=O)c1ccc(CC(=O)Nc2ccc(C(=O)N(C)Cc3ccco3)cc2)cc1 [Example 37, 4-{2-[4-(ethanesulfonyl)phenyl]acetamido}-N-(furan-2-ylmethyl)-N-methylbenzamide]
≤ 100	CCS(=O)(=O)c1ccc(CC(=O)Nc2ccc(C(=O)N(Cc3ccccc3)Cc3ccccc3)cc2)cc1 [Example 38, N,N-dibenzyl-4-{2-[4-(ethanesulfonyl)phenyl]acetamido}benzamide]
≤ 1000	CCS(=O)(=O)c1ccc(CC(=O)Nc2ccc(C(=O)N(c3ccccn3)C3CCC3)cc2)cc1 [Example 41, N-cyclobutyl-4-{2-[4-(ethanesulfonyl)phenyl]acetamido}-N-(pyridin-2-yl)benzamide]
≤ 100	CCS(=O)(=O)c1ccc(CC(=O)Nc2ccc(C(=O)N(c3ccccc3)C(C)(C)C)cc2)cn1 [Example 44, N-tert-butyl-4-{2-[6-(ethanesulfonyl)pyridin-3-yl]acetamido}-N-phenylbenzamide]
≤ 1000	CCN(C(=O)c1ccc(NC(=O)Cc2ccc(S(=O)(=O)CC)nc2)cc1F)c1ccccc1 [Example 43, 4-{2-[6-(ethanesulfonyl)pyridin-3-yl]acetamido}-N-ethyl-2-fluoro-N-phenylbenzamide]
≤ 10	CCS(=O)(=O)c1ccc(CC(=O)Nc2ccc(C(=O)N(c3ccccc3)C(C)(C)C3CCCO3)cc2)cc1 (centres unmarked) [Example 18, 4-{2-[4-(ethanesulfonyl)phenyl]acetamido}-N-[2-(oxolan-2-yl)propan-2-yl]-N-phenylbenzamide]
≤ 100	CCCN(C(=O)c1ccc(NC(=O)Cc2ccc(S(=O)(=O)CC)cc2)cc1)c1cccnc1 [Example 31, 4-{2-[4-(ethanesulfonyl)phenyl]acetamido}-N-propyl-N-(pyridin-3-yl)benzamide]
≤ 1000	CCS(=O)(=O)c1ccc(CC(=O)Nc2ccc(C(=O)N(C)Cc3ccccc3)cc2)cc1 [Example 26, N-benzyl-4-{2-[4-(ethanesulfonyl)phenyl]acetamido}-N-methylbenzamide]
≤ 1000	CCS(=O)(=O)c1ccc(CC(=O)Nc2ccc(C(=O)N(C)c3cc(C)on3)cc2)cc1 [Example 1, 4-{2-[4-(ethanesulfonyl)phenyl]acetamido}-N-methyl-N-(5-methyl-1,2-oxazol-3-yl)benzamide]
≤ 100	CCS(=O)(=O)c1ccc(CC(=O)Nc2ccc(C(=O)N3CCCCC3c3ccccc3)cc2)cc1 (centres unmarked) [Example 33, 2-[4-(ethanesulfonyl)phenyl]-N-[4-(2-phenylpiperidine-1-carbonyl)phenyl]acetamide]
≤ 100	CCS(=O)(=O)c1ccc(CC(=O)Nc2ccc(C(=O)N(c3ccc(C)cc3)C(C)(C)CO)cc2)cc1 [Example 42, 4-{2-[4-(ethanesulfonyl)phenyl]acetamido}-N-(1-hydroxy-2-methylpropan-2-yl)-N-(4-methylphenyl)benzamide]
≤ 10	CCN(C(=O)c1ccc(NC(=O)Cc2ccc(S(=O)(=O)CC)cc2)cc1)c1ccccc1 [Example 34, 4-{2-[4-(ethanesulfonyl)phenyl]acetamido}-N-ethyl-N-phenylbenzamide]
≤ 1000	CCN(C(=O)c1ccc(NC(=O)Cc2ccc(S(=O)(=O)CC)cc2)cc1)c1cccnc1 [Example 32, 4-{2-[4-(ethanesulfonyl)phenyl]acetamido}-N-ethyl-N-(pyridin-3-yl)benzamide]
≤ 100	CCS(=O)(=O)c1ccc(CC(=O)Nc2ccc(C(=O)N3CCCc4ccccc43)cc2)cc1 [Example 28, 2-[4-(ethanesulfonyl)phenyl]-N-[4-(1,2,3,4-tetrahydroquinoline-1-carbonyl)phenyl]acetamide]
≤ 100	CCN(C(=O)c1ccc(NC(=O)Cc2ccc(S(=O)(=O)CC)cc2)cc1)c1cc(C)nn1C [Example 2, N-(1,3-dimethyl-1H-pyrazol-5-yl)-4-{2-[4-(ethanesulfonyl)phenyl]acetamido}-N-ethylbenzamide]
≤ 100	CCN(C(=O)c1ccc(NC(=O)Cc2ccc(S(=O)(=O)CC)cc2)cc1)c1cc(C)no1 [Example 3, 4-{2-[4-(ethanesulfonyl)phenyl]acetamido}-N-ethyl-N-(3-methyl-1,2-oxazol-5-yl)benzamide]
≤ 1000	CCCN(CC1CC1)C(=O)c1ccc(NC(=O)Cc2ccc(S(=O)(=O)CC)cc2)cc1 [Example 27, N-(cyclopropylmethyl)-4-{2-[4-(ethanesulfonyl)phenyl]acetamido}-N-propylbenzamide]

These compounds were tested on IL-17A production in anti-CD3/anti-CD28 stimulated peripheral blood mononuclear cells (PBMCs) (assay: Peripheral blood mononuclear cell (PBMC) IL-17 assay). Settings: Homo sapiens, 120 h, read-out:.
Method: This assay is designed to measure the levels of IL-17A secreted from anti-CD3/anti-CD28 stimulated PBMCs with the aim of measuring RORγ mediated inhibition of IL-17A production.
The assay medium consists of 90% RPMI 1640 (Lonza), 10% heat inactivated fetal bovin serum (FBS, Lonza) and 100 U/mL penicillin/streptomycin solution.
Anti-CD3 antibody (BD Pharmingen) was diluted to 10 μg/ml in PBS (Lonza). 30 μL of 10 μg/ml anti-CD3 solution was added to the inner 60 wells, excluding any negative control wells, of a 96-well cell culture treated U-bottom plate (Greiner). Plates were incubated overnight (16-24 hours) at 37° C. and 5% CO2.
Peripheral blood mononuclear cells were separated from buffy coats (Sanquin) using Ficoll-Paque PREMIUM separation medium (GE Healthcare Life Sciences) according to manufacturer's protocol and re-suspended in assay medium at 37° C.
Test compounds were diluted, starting from a 10 mM dimethylsulfoxide (DMSO) stock solution, to serial dilutions in DMSO at 200× the final test concentration. Subsequently, these solutions were diluted in two dilution steps in assay medium to 10× the final test concentration. The DMSO concentration of the 10× test compound solution was 5%.
Anti-CD28 antibody (BD Pharmingen) was diluted to 20 μg/mL in PBS.
For compound screening, the anti-CD3 coated plates were washed three times with PBS, the wells were subsequently aspirated using vacuum. To each screening well 80 μL of the PBMC suspension, 10 μL of the anti-CD28 solution and 10 μL of the 1 Ox test compound solution was added, resulting in the final test concentration with 0.5% DMSO. All outer wells were filled with assay medium to prevent evaporation. Plates were incubated for 5 days at 37° C. and 5% CO2.
After incubation the plates were spun down at 1500 rpm for 4 minutes and the supernatant was collected. Subsequently, the IL-17A levels in the supernatants was determined using an IL-17 ELISA kit (human IL-17 DuoSet, R&D systems) according to manufacturer's protocol.
The half maximum inhibitory concentration (IC50) values for the test compounds were calculated from the IL-17A signal using GraphPad Prism software (GraphPad Software).

Structure (SMILES)	IC50 [nM]
CCN(C(=O)c1ccc(NC(=O)Cc2ccc(S(=O)(=O)CC)cc2)cc1)c1nc(C)c(C)s1 [Example 13, N-(4-methyl-5-methyl-1,3-thiazol-2-yl)-4-{2-[4-(ethanesulfonyl)phenyl]acetamido}-N-ethylbenzamide]	≤ 100

Same assay, conditions: Homo sapiens, 120 h, read-out: mean pIC50, inhibition of IL-17A secretion (ELISA), human PBMCs, anti-CD3/anti-CD28 stimulated, 5 days (converted)

Structure (SMILES)	IC50 [nM]
CCCN(C(=O)c1ccc(NC(=O)Cc2ccc(S(=O)(=O)CC)cc2)cc1)c1cc(C)on1 [Example 5, 4-{2-[4-(ethanesulfonyl)phenyl]acetamido}-N-(5-methyl-1,2-oxazol-3-yl)-N-propylbenzamide]	≤ 100
CCS(=O)(=O)c1ccc(CC(=O)Nc2ccc(C(=O)N(c3ccccc3)C(C)(C)C)cc2)cn1 [Example 44, N-tert-butyl-4-{2-[6-(ethanesulfonyl)pyridin-3-yl]acetamido}-N-phenylbenzamide]	≤ 100
CCS(=O)(=O)c1ccc(CC(=O)Nc2ccc(C(=O)N(c3ccc(C)cc3)C(C)(C)C3CCCO3)cc2)cc1 (centres unmarked) [Example 17, 4-{2-[4-(ethanesulfonyl)phenyl]acetamido}-N-(4-methylphenyl)-N-[2-(oxolan-2-yl)propan-2-yl]benzamide]	≤ 100
CCS(=O)(=O)c1ccc(CC(=O)Nc2ccc(C(=O)N(c3ccccc3)C3CC(F)(F)C3)cc2)cc1 [Example 21, N-(3,3-difluorocyclobutyl)-4-{2-[4-(ethanesulfonyl)phenyl]acetamido}-N-phenylbenzamide]	≤ 100
CCS(=O)(=O)c1ccc(CC(=O)Nc2ccc(C(=O)N(c3ccccc3)C(C)(C)C3CCCO3)cc2)cc1 (centres unmarked) [Example 18, 4-{2-[4-(ethanesulfonyl)phenyl]acetamido}-N-[2-(oxolan-2-yl)propan-2-yl]-N-phenylbenzamide]	≤ 100
CCCN(C(=O)c1ccc(NC(=O)Cc2ccc(S(=O)(=O)CC)cc2)cc1)c1cc(C)nn1C [Example 6, N-(1,3-dimethyl-1H-pyrazol-5-yl)-4-{2-[4-(ethanesulfonyl)phenyl]acetamido}-N-propylbenzamide]	≤ 100
CCN(C(=O)c1ccc(NC(=O)Cc2ccc(S(=O)(=O)CC)cc2)cc1)c1cc(C)nn1C [Example 2, N-(1,3-dimethyl-1H-pyrazol-5-yl)-4-{2-[4-(ethanesulfonyl)phenyl]acetamido}-N-ethylbenzamide]	≤ 100
